Legend:
Format in all cases: in vivo
[1] = system: barnyard grass (Echinochloa crus-galli Beauv.); assay: Test Example 1: herbicidal effect on paddy field weeds before emergence; conditions: Dosage 5 kg/ha
Procedure, shortened: (§1)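 Seeds of both weeds, still ungerminated, in soil pots held under paddy conditions received a set dose of test solution as soil treatment. After twenty-one days, control relative to untreated pots was calculated and rated on a scoring scale.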

[2] = system: bulrush (Scirpus juncoides Roxb.); assay: as above; conditions: Dosage 5 kg/ha
Procedure, shortened: as §1

[3] = system: barnyard grass (Echinochloa crus-galli Beauv.); assay: Test Example 2: herbicidal effect on paddy field weeds after emergence; conditions: Dosage 5 kg/ha; one-leaved stage; 21 days after treatment
Procedure, shortened: (§2)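 Weeds were sown in 1/10000 are pots of soil flooded to paddy conditions and grown to the one-leaf stage, then the soil was treated with a solution of compound at a predetermined dosage.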

[4] = system: bulrush (Scirpus juncoides Roxb.); assay: as above; conditions: Dosage 5 kg/ha; one-leaved stage; 21 days after treatment
Procedure, shortened: as §2

[5] = system: monochoria (Monochoria vaginalis Presl); assay: as above; conditions: Dosage 5 kg/ha; one-leaved stage; 21 days after treatment
Procedure, shortened: as §2

[6] = system: barnyard grass (Echinochloa crus-galli Beauv.), Ec; assay: Test Example 3: herbicidal effect on upland weeds before emergence; conditions: dosage 5 kg/ha
Procedure, shortened: (§3)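 Herbicidal activity was rated from kill rate determined 14 days post-spray, the compound having been applied pre-emergence as a liquid agent.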

[7] = system: bird's eye speedwell (Veronica persica Poir.), Vp; assay: as above; conditions: dosage 5 kg/ha
Procedure, shortened: as §3

[8] = system: cleavers (Galium aparine L.), Ga; assay: as above; conditions: dosage 5 kg/ha
Procedure, shortened: as §3

[9] = system: cocklebur (Xanthium strumarium L.), Xs; assay: as above; conditions: dosage 5 kg/ha
Procedure, shortened: as §3

[10] = system: forxtail grass (Alopecurus aequalis var. amurensis Ohwi), Am; assay: as above; conditions: foxtail grass, dosage 5 kg/ha
Procedure, shortened: as §3

[11] = system: velvetleaf (Abutilon theophtasti L.), At; assay: as above; conditions: dosage 5 kg/ha
Procedure, shortened: as §3

soybean plant (So) = assay: Test Example 3: phytotoxicity to upland crop plants, treatment before emergence; conditions: dosage 5 kg/ha
Procedure, shortened: (§4)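 Compound formulated as a liquid agent at a prescribed concentration is sprayed before crop emergence. After fourteen days, damage to soybean and wheat is examined and rated by a judgment criterion.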

wheat (Wh) = assay: as above; conditions: dosage 5 kg/ha
Procedure, shortened: as §4

[12] = system: barnyard grass (Echinochloa crus-galli Beauv.), Ec; assay: Test Example 4: herbicidal effect on upland weeds after emergence; conditions: dosage 5 kg/ha; sprayed after emergence; judged 14 days after treatment
Procedure, shortened: (§5)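 Scores of weed-killing rate, with crop phytotoxicity, come from inspection 14 days after plants in soil vats, grown to specified leaf stages, are sprayed with a formulation holding the compound at a prescribed concentration.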

[13] = system: bird's eye speedwell (Veronica persica Poir.), Vp; assay: as above; conditions: dosage 5 kg/ha; sprayed after emergence; judged 14 days after treatment
Procedure, shortened: as §5

[14] = system: cleavers (Galium aparine L.), Ga; assay: as above; conditions: dosage 5 kg/ha; sprayed after emergence; judged 14 days after treatment
Procedure, shortened: as §5

[15] = system: cocklebur (Xanthium strumarium L.), Xs; assay: as above; conditions: dosage 5 kg/ha; sprayed after emergence; judged 14 days after treatment
Procedure, shortened: as §5

[16] = system: forxtail grass (Alopecurus aequalis var. amurensis Ohwi), Am; assay: as above; conditions: dosage 5 kg/ha; sprayed after emergence; judged 14 days after treatment
Procedure, shortened: as §5

[17] = system: velvetleaf (Abutilon theophtasti L.), At; assay: as above; conditions: dosage 5 kg/ha; sprayed after emergence; judged 14 days after treatment
Procedure, shortened: as §5

soybean plant = assay: Test Example 4: phytotoxicity to upland crop plants, treatment after emergence; conditions: dosage 5 kg/ha, sprayed after emergence, judged 14 days after treatment
Procedure, shortened: (§6)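 Upland weeds and crop plants (soybean, wheat) are grown from seed in soil until they reach given leaf stages, then treated by spraying with the compound-containing agent; effects are judged two weeks later.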

wheat = assay: as above; conditions: dosage 5 kg/ha, sprayed after emergence, judged 14 days after treatment
Procedure, shortened: as §6

CCCNC(=O)c1nc2c(cc1C(=O)Nc1c(CC)ccc(Cl)c1CC)c(C)nn2C [compound 1112]
Pre-emergence treatment Barnyard grass (herbicidal effect) [1]: 5 (Weed-killing rate is 100%.)
Pre-emergence treatment Bulrush (herbicidal effect) [2]: 5 (Weed-killing rate is 100%.)
Post-emergence treatment Barnyard grass (herbicidal effect) [3]: 5 (Weed-killing rate is 100%.)
Post-emergence treatment Bulrush (herbicidal effect) [4]: 5 (Weed-killing rate is 100%.)
Post-emergence treatment Monochoria (herbicidal effect) [5]: 5 (Weed-killing rate is 100%.)
Herbicidal effect Ec [6]: 5 (Weed-killing rate is 100%.)
Herbicidal effect Vp [7]: 5 (Weed-killing rate is 100%.)
Herbicidal effect Ga [8]: 5 (Weed-killing rate is 100%.)
Herbicidal effect Xs [9]: 5 (Weed-killing rate is 100%.)
Herbicidal effect Am [10]: 5 (Weed-killing rate is 100%.)
Herbicidal effect At [11]: 5 (Weed-killing rate is 100%.)
Phytotoxicity So (soybean plant (So)): 5 (Crop-killing rate is 100%.)
Phytotoxicity Wh (wheat (Wh)): 5 (Crop-killing rate is 100%.)
Herbicidal effect Ec [12]: 5 (Weed-killing rate is 100%.)
Herbicidal effect Vp [13]: 5 (Weed-killing rate is 100%.)
Herbicidal effect Ga [14]: 5 (Weed-killing rate is 100%.)
Herbicidal effect Xs [15]: 5 (Weed-killing rate is 100%.)
Herbicidal effect Am [16]: 5 (Weed-killing rate is 100%.)
Herbicidal effect At [17]: 5 (Weed-killing rate is 100%.)
Phytotoxicity So (soybean plant): 5 (Crop-killing rate is 100%.)
Phytotoxicity Wh (wheat): 5 (Crop-killing rate is 100%.)

CCCNC(=O)c1nc2nn(C)cc2cc1C(=O)Nc1c(CC)ccc(Cl)c1CC [compound 1124]
Pre-emergence treatment Barnyard grass (herbicidal effect) [1]: 5 (Weed-killing rate is 100%.)
Pre-emergence treatment Bulrush (herbicidal effect) [2]: 5 (Weed-killing rate is 100%.)
Post-emergence treatment Barnyard grass (herbicidal effect) [3]: 5 (Weed-killing rate is 100%.)
Post-emergence treatment Bulrush (herbicidal effect) [4]: 5 (Weed-killing rate is 100%.)
Post-emergence treatment Monochoria (herbicidal effect) [5]: 5 (Weed-killing rate is 100%.)
Herbicidal effect Ec [6]: 5 (Weed-killing rate is 100%.)
Herbicidal effect Vp [7]: 5 (Weed-killing rate is 100%.)
Herbicidal effect Ga [8]: 5 (Weed-killing rate is 100%.)
Herbicidal effect Xs [9]: 5 (Weed-killing rate is 100%.)
Herbicidal effect Am [10]: 5 (Weed-killing rate is 100%.)
Herbicidal effect At [11]: 5 (Weed-killing rate is 100%.)
Phytotoxicity So (soybean plant (So)): 5 (Crop-killing rate is 100%.)
Phytotoxicity Wh (wheat (Wh)): 5 (Crop-killing rate is 100%.)
Herbicidal effect Ec [12]: 5 (Weed-killing rate is 100%.)
Herbicidal effect Vp [13]: 5 (Weed-killing rate is 100%.)
Herbicidal effect Ga [14]: 5 (Weed-killing rate is 100%.)
Herbicidal effect Xs [15]: 5 (Weed-killing rate is 100%.)
Herbicidal effect Am [16]: 5 (Weed-killing rate is 100%.)
Herbicidal effect At [17]: 5 (Weed-killing rate is 100%.)
Phytotoxicity So (soybean plant): 5 (Crop-killing rate is 100%.)
Phytotoxicity Wh (wheat): 5 (Crop-killing rate is 100%.)

CCCNC(=O)c1nc2cnn(C)c2cc1C(=O)Nc1c(CC)ccc(Cl)c1CC [compound 1173]
Pre-emergence treatment Barnyard grass (herbicidal effect) [1]: 5 (Weed-killing rate is 100%.)
Pre-emergence treatment Bulrush (herbicidal effect) [2]: 5 (Weed-killing rate is 100%.)
Post-emergence treatment Barnyard grass (herbicidal effect) [3]: 5 (Weed-killing rate is 100%.)
Post-emergence treatment Bulrush (herbicidal effect) [4]: 5 (Weed-killing rate is 100%.)
Post-emergence treatment Monochoria (herbicidal effect) [5]: 5 (Weed-killing rate is 100%.)
Herbicidal effect Ec [6]: 5 (Weed-killing rate is 100%.)
Herbicidal effect Vp [7]: 5 (Weed-killing rate is 100%.)
Herbicidal effect Ga [8]: 5 (Weed-killing rate is 100%.)
Herbicidal effect Xs [9]: 5 (Weed-killing rate is 100%.)
Herbicidal effect Am [10]: 5 (Weed-killing rate is 100%.)
Herbicidal effect At [11]: 5 (Weed-killing rate is 100%.)
Phytotoxicity So (soybean plant (So)): 5 (Crop-killing rate is 100%.)
Phytotoxicity Wh (wheat (Wh)): 5 (Crop-killing rate is 100%.)
Herbicidal effect Ec [12]: 5 (Weed-killing rate is 100%.)
Herbicidal effect Vp [13]: 5 (Weed-killing rate is 100%.)
Herbicidal effect Ga [14]: 5 (Weed-killing rate is 100%.)
Herbicidal effect Xs [15]: 5 (Weed-killing rate is 100%.)
Herbicidal effect Am [16]: 5 (Weed-killing rate is 100%.)
Herbicidal effect At [17]: 5 (Weed-killing rate is 100%.)
Phytotoxicity So (soybean plant): 5 (Crop-killing rate is 100%.)
Phytotoxicity Wh (wheat): 5 (Crop-killing rate is 100%.)

CCCNC(=O)c1nc2c(C)nn(C)c2cc1C(=O)Nc1c(CC)ccc(Cl)c1CC [compound 1197]
Pre-emergence treatment Barnyard grass (herbicidal effect) [1]: 5 (Weed-killing rate is 100%.)
Pre-emergence treatment Bulrush (herbicidal effect) [2]: 5 (Weed-killing rate is 100%.)
Post-emergence treatment Barnyard grass (herbicidal effect) [3]: 5 (Weed-killing rate is 100%.)
Post-emergence treatment Bulrush (herbicidal effect) [4]: 5 (Weed-killing rate is 100%.)
Post-emergence treatment Monochoria (herbicidal effect) [5]: 5 (Weed-killing rate is 100%.)
Herbicidal effect Ec [6]: 5 (Weed-killing rate is 100%.)
Herbicidal effect Vp [7]: 5 (Weed-killing rate is 100%.)
Herbicidal effect Ga [8]: 5 (Weed-killing rate is 100%.)
Herbicidal effect Xs [9]: 5 (Weed-killing rate is 100%.)
Herbicidal effect Am [10]: 5 (Weed-killing rate is 100%.)
Herbicidal effect At [11]: 5 (Weed-killing rate is 100%.)
Phytotoxicity So (soybean plant (So)): 5 (Crop-killing rate is 100%.)
Phytotoxicity Wh (wheat (Wh)): 5 (Crop-killing rate is 100%.)
Herbicidal effect Ec [12]: 5 (Weed-killing rate is 100%.)
Herbicidal effect Vp [13]: 5 (Weed-killing rate is 100%.)
Herbicidal effect Ga [14]: 5 (Weed-killing rate is 100%.)
Herbicidal effect Xs [15]: 5 (Weed-killing rate is 100%.)
Herbicidal effect Am [16]: 5 (Weed-killing rate is 100%.)
Herbicidal effect At [17]: 5 (Weed-killing rate is 100%.)
Phytotoxicity So (soybean plant): 5 (Crop-killing rate is 100%.)
Phytotoxicity Wh (wheat): 5 (Crop-killing rate is 100%.)

Source: US6444617B1, “Fused-heterocycle dicarboxylic acid diamide derivatives or salts thereof, herbicide and usage thereof” (Nihon Nohyaku Co., Ltd., priority 1998, dated 2002)
